The values below are quoted from earlier work in patent US20100144738A1, “INHIBITORS OF C-MET AND USES THEREOF” (priority 2006, published 2010).

One data set addresses c-Met (Homo sapiens, UniProt P08581). Conditions: single dose.

Where a name gives a salt, the structure may show the parent alone. Read-outs that look alike come from different tables or passages of the source.

Sequence of c-Met (P08581 25-1390): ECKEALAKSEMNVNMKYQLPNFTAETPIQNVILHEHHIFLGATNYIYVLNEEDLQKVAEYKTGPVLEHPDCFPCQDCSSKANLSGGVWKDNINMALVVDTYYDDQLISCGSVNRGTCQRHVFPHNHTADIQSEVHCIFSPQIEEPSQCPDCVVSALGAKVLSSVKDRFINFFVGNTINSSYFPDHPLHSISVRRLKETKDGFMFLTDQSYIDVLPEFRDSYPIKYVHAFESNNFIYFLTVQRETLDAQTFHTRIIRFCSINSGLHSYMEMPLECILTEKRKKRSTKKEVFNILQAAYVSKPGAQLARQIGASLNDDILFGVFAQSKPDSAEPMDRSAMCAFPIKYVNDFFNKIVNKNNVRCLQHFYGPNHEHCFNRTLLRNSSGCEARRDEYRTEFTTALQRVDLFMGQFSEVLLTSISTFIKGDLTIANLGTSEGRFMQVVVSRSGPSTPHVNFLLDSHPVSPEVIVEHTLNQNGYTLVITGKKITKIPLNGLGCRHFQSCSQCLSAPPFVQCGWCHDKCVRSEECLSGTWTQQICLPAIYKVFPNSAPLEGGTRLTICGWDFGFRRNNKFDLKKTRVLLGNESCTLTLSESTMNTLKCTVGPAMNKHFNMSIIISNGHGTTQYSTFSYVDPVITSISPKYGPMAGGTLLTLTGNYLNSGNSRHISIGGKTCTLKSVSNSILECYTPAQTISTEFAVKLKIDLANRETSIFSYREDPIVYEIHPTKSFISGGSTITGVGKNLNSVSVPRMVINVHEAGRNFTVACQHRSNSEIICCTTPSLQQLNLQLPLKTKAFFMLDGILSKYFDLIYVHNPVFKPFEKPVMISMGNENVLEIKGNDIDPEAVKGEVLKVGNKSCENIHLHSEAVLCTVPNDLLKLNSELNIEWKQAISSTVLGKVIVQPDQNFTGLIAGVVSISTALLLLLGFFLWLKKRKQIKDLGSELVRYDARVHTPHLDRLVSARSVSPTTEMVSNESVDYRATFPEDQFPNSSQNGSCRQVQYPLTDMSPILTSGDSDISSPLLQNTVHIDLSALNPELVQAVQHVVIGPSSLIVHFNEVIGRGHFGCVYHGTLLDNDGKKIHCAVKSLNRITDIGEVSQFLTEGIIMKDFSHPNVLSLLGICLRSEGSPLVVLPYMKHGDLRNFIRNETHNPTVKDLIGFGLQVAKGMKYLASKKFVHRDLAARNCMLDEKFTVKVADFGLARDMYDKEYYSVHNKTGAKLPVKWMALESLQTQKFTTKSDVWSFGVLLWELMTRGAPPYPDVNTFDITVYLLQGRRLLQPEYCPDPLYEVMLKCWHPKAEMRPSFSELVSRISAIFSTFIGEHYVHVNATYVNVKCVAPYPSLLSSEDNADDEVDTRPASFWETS

`Cc1ccc(NC(=O)c2ccc(CN3CCN(C)CC3)cc2)cc1Nc1nccc(-c2cccnc2)n1` [IMATINIB, imatinib mesylate]: the “sensitivity of mutations to imatinib” value is “resistant” in the data set on c-Met mutations (mutations Asp816Val/Phe/Tyr) and “sensitive” in the data set with c-Met mutations (mutations Val560Gly, Glu839Lys, Asp820Gly).
For the compound `Cc1[nH]c(/C=C2\C(=O)Nc3ccc(S(=O)(=O)Cc4c(Cl)cccc4Cl)cc32)c(C)c1C(=O)N1CCC[C@@H]1CN1CCCC1` [PHA-665752], the “duration of inhibition of c-Met phosphorylation in tumor xenografts” value on c-Met is not above 12 h.
